Test results as given in patent EP4722207A1, “OXOISOINDOLINYL-SUBSTITUTED TETRAHYDROPYRIMIDINEDIONE DERIVATIVE AND USE THEREOF” (Gluetacs Therapeutics (Shanghai) Co., Ltd., priority 2023, dated 2024).

What was measured:
IKZF1 = target: T1, IKZF1 (Homo sapiens, UniProt Q13422+Q96SW2); assay: Western-blot assay, substrate protein degradation in hPBMCs: IKZF1; type: cell-based; conditions: for IKZF1 substrate protein remaining %: compounds at 50 nM and 500 nM, 24 hours; for substrate protein remaining % IKZF1: 24 hours of compound treatment, 50 nM and 500 nM
T1 construct: effects of the compounds of the present disclosure on the expression of target proteins in cells; endogenous in cells; host or cells: human PBMCs (hPBMCs)
T1 sequence (Q13422 whole entry): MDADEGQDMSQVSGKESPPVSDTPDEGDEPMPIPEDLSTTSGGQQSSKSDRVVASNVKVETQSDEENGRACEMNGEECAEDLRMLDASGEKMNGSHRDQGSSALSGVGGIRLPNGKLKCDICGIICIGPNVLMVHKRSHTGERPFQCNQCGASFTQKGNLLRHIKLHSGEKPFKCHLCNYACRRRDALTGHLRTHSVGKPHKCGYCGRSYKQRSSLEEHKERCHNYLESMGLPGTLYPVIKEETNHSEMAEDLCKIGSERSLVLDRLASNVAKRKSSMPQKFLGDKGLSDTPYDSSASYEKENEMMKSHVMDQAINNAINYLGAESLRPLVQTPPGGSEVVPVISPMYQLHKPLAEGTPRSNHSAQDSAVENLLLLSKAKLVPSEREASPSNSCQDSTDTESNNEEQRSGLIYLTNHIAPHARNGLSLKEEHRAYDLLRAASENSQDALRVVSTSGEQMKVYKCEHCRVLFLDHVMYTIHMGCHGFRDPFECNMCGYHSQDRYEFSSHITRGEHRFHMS
T1 sequence (Q96SW2 whole entry): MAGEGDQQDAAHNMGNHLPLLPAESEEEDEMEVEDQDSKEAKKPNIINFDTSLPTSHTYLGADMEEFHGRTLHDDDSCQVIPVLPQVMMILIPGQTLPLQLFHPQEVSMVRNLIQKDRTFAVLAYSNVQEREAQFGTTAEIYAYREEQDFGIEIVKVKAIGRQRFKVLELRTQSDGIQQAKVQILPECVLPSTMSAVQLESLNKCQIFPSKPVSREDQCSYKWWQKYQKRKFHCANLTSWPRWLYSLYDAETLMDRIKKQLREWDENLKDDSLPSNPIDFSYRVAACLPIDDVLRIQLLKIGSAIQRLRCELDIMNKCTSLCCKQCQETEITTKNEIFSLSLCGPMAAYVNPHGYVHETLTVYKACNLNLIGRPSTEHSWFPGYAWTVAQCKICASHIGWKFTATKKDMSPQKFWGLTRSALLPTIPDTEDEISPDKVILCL
T1 sequence (Q16531 whole entry partner): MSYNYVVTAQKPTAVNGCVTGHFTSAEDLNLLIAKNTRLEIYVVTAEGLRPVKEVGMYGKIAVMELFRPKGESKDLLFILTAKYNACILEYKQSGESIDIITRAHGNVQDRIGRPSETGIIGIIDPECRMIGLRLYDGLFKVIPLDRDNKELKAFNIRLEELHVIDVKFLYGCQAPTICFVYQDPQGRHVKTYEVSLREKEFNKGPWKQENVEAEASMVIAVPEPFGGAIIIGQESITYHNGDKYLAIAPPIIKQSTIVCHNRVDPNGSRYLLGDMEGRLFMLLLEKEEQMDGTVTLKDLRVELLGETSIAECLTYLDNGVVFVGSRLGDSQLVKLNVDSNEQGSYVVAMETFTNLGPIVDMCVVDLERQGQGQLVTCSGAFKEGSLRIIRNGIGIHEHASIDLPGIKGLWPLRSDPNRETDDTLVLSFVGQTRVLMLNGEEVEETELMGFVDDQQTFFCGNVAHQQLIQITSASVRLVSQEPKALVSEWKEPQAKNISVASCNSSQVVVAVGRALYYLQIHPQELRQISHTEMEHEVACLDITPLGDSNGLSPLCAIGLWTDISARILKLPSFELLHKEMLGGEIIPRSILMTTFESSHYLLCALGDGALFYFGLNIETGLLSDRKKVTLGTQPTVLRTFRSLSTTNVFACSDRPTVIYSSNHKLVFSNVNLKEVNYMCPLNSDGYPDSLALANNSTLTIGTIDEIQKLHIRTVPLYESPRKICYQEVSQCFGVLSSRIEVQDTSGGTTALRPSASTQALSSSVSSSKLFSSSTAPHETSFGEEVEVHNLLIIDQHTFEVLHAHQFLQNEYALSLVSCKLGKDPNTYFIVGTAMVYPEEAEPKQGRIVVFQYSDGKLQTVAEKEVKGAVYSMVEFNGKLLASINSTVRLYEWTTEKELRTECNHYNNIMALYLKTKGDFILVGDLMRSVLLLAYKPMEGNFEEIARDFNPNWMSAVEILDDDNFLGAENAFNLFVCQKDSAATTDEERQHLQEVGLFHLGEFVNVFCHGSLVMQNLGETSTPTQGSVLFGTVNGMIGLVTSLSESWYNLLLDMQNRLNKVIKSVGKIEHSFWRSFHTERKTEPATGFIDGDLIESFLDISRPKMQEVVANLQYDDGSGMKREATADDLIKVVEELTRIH

WEE1 = target: T2, WEE1 (Homo sapiens, UniProt P30291+Q96SW2); assay: Western-blot assay, substrate protein degradation in hPBMCs: WEE1; type: cell-based; conditions: for WEE1 substrate protein remaining %: compounds at 50 nM and 500 nM, 24 hours; for substrate protein remaining % WEE1: 24 hours of compound treatment, 50 nM and 500 nM
T2 construct: effects of the compounds of the present disclosure on the expression of target proteins in cells; endogenous in cells; host or cells: human PBMCs (hPBMCs)
T2 sequence (P30291 whole entry): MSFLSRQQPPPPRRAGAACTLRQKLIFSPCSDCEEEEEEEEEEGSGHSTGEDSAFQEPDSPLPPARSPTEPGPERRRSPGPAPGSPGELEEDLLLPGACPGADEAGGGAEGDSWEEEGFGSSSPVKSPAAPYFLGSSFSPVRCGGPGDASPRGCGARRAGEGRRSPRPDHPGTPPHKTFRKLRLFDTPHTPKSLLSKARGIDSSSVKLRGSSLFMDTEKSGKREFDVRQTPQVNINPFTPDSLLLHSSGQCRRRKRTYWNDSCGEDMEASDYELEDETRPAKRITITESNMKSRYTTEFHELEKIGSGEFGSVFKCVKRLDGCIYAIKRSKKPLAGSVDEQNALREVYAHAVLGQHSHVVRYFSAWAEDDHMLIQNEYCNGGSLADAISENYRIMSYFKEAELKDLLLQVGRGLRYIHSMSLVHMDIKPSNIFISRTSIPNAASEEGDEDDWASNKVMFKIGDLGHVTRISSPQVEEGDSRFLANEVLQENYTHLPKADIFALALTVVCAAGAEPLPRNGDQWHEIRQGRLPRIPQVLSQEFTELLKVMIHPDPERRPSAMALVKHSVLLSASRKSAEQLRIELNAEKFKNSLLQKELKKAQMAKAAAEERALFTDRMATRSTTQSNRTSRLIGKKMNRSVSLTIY
T2 sequence (Q96SW2 whole entry): as the sequence (Q96SW2 whole entry) above
T2 sequence (Q16531 whole entry partner): as the sequence (Q16531 whole entry partner) above

GSPT1 = target: T3, GSPT1 (Homo sapiens, UniProt P15170+Q96SW2); assay: Western-blot assay, substrate protein degradation in hPBMCs: GSPT1; type: cell-based; conditions: for GSPT1 substrate protein remaining %: compounds at 50 nM and 500 nM, 24 hours; for substrate protein remaining % GSPT1: 24 hours of compound treatment, 50 nM and 500 nM
T3 construct: effects of the compounds of the present disclosure on the expression of target proteins in cells; endogenous in cells; host or cells: human PBMCs (hPBMCs)
T3 sequence (P15170 whole entry): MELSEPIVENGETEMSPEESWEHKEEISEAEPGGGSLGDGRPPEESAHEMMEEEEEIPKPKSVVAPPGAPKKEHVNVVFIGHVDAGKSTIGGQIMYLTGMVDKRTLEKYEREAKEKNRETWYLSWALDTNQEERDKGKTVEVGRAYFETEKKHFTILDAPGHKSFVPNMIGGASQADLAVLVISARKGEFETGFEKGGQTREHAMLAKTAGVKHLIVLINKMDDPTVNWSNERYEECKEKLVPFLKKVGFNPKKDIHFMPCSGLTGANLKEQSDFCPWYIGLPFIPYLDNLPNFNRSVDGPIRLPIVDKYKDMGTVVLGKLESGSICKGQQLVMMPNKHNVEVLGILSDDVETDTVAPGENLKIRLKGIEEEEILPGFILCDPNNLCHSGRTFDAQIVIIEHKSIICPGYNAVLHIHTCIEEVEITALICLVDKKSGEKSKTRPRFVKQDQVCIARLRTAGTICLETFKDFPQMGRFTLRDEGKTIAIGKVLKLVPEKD
T3 sequence (Q96SW2 whole entry): as the sequence (Q96SW2 whole entry) above
T3 sequence (Q16531 whole entry partner): as the sequence (Q16531 whole entry partner) above

MM.1S = assay: Cell viability assay (CellTiter-Meiluncell Luminescent), tumor cell proliferation, MM.1S; conditions: Homo sapiens, MM1.S, 96 h; for IC50: read-out: inhibitory activity (IC50, nM) against tumor cells proliferation, MM.1S; for inhibition at 0.01 µM: read-out: Inhibition Rate at 10 nM (%); for inhibition at 0.5 µM: read-out: Inhibition Rate at 500 nM (%)
Method: The tumor cells used herein were cultured in a cell culture medium listed in table 2 at 37°C in an incubator with 5% CO2. Prior to experimentation, all cell lines used were correctly identified by STR profiling, and tested negative for mycoplasma contamination using a mycoplasma detection kit through routine screenings.
On the following day, the test compounds of the present disclosure were subjected to serial dilution. […] Subsequently, 0.5 µL of the test compound dilution was transferred into the 96-well plate containing the cells, with each well containing 100 µL of cell culture medium. […] Into the 96-well plate, the diluted test compounds and corresponding detection reagents were added, resulting in final test compound concentrations of 500 nM and 10 nM, respectively. The experimental procedure is described below using the diluted 2 µM test compound as an example.
After the cells were treated with the compounds of the present disclosure for a specified period, the cell viability assay reagent was added to the culture medium according to the kit's instructions to determine cell viability. […] All controls were treated using the same procedure as the compounds of the present disclosure. The growth inhibition curves for the compounds of the present disclosure were plotted using Prism GraphPad software, and the IC50 values were calculated therefrom.

IKZF2 = target: T4, IKZF2 (Homo sapiens, UniProt Q96SW2+Q9UKS7); assay: Western-blot assay, substrate protein degradation in hPBMCs: IKZF2; type: cell-based; conditions: for IKZF2 substrate protein remaining %: compounds at 50 nM and 500 nM, 24 hours; for substrate protein remaining % IKZF2: 24 hours of compound treatment, 50 nM and 500 nM
T4 construct: effects of the compounds of the present disclosure on the expression of target proteins in cells; endogenous in cells; host or cells: human PBMCs (hPBMCs)
T4 sequence (Q9UKS7 whole entry): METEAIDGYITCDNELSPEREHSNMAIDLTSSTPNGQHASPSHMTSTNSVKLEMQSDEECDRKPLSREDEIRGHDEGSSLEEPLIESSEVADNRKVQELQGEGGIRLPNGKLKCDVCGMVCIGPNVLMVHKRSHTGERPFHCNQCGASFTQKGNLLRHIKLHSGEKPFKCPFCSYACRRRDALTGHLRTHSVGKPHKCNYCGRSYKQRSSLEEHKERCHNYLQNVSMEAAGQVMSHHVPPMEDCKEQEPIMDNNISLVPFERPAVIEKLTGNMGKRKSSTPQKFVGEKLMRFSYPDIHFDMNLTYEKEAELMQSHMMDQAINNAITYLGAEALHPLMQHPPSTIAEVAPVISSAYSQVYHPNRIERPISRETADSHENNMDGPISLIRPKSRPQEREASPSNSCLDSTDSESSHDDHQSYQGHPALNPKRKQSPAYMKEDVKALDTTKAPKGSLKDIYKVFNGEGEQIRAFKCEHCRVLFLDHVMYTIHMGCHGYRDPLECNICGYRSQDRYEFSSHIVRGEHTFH
T4 sequence (Q96SW2 whole entry): as the sequence (Q96SW2 whole entry) above
T4 sequence (Q16531 whole entry partner): as the sequence (Q16531 whole entry partner) above

IKZF3 = target: T5, IKZF3 (Homo sapiens, UniProt Q96SW2+Q9UKT9); assay: Western-blot assay, substrate protein degradation in hPBMCs: IKZF3; type: cell-based; conditions: for IKZF3 substrate protein remaining %: compounds at 50 nM and 500 nM, 24 hours; for substrate protein remaining % IKZF3: 24 hours of compound treatment, 50 nM and 500 nM
T5 construct: effects of the compounds of the present disclosure on the expression of target proteins in cells; endogenous in cells; host or cells: human PBMCs (hPBMCs)

CK1α = target: T6, CK1α (Homo sapiens, UniProt P48729+Q96SW2); assay: Western-blot assay, substrate protein degradation in hPBMCs: CK1α; type: cell-based; conditions: for CK1α substrate protein remaining %: compounds at 50 nM and 500 nM, 24 hours; for substrate protein remaining % CK1α: 24 hours of compound treatment, 50 nM and 500 nM
T6 construct: effects of the compounds of the present disclosure on the expression of target proteins in cells; endogenous in cells; host or cells: human PBMCs (hPBMCs)
T6 sequence (P48729 whole entry): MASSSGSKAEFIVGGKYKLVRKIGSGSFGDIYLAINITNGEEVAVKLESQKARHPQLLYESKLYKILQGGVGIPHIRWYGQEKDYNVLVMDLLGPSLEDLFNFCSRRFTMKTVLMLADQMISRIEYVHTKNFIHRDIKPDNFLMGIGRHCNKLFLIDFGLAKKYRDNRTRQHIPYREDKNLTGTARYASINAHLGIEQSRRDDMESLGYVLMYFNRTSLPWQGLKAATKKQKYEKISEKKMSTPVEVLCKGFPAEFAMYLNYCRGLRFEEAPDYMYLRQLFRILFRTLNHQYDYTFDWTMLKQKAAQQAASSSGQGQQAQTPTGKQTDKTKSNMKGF
T6 sequence (Q96SW2 whole entry): as the sequence (Q96SW2 whole entry) above
T6 sequence (Q16531 whole entry partner): as the sequence (Q16531 whole entry partner) above

MV-4-11 = assay: Cell viability assay (CellTiter-Meiluncell Luminescent), tumor cell proliferation, MV-4-11; conditions: Homo sapiens, MV4-11, 96 h
H292 = assay: Cell viability assay (CellTiter-Meiluncell Luminescent), tumor cell proliferation, H292; conditions: Homo sapiens, NCI-H292, 96 h; for inhibition at 0.01 µM: read-out: Inhibition Rate at 10 nM (%); for inhibition at 0.5 µM: read-out: Inhibition Rate at 500 nM (%)

Row | SMILES | IKZF1 substrate protein remaining % (IKZF1) | WEE1 substrate protein remaining % (WEE1) | GSPT1 substrate protein remaining % (GSPT1) | IC50 (MM.1S) | IKZF2 substrate protein remaining % (IKZF2) | IKZF3 substrate protein remaining % (IKZF3) | CK1α substrate protein remaining % (CK1α) | substrate protein remaining % IKZF1 (IKZF1) | substrate protein remaining % WEE1 (WEE1) | substrate protein remaining % GSPT1 (GSPT1) | substrate protein remaining % IKZF2 (IKZF2) | substrate protein remaining % IKZF3 (IKZF3) | substrate protein remaining % CK1α (CK1α) | inhibition at 0.01 µM (MM.1S) | inhibition at 0.5 µM (MM.1S) | inhibition at 0.01 µM (MV-4-11; read-out: Inhibition Rate at 10 nM (%)) | inhibition at 0.5 µM (MV-4-11; read-out: Inhibition Rate at 500 nM (%)) | inhibition at 0.01 µM (H292) | inhibition at 0.5 µM (H292)
1 | O=C1CCN(N2Cc3cc(CN4CC=C(c5cncc(Cl)c5Cl)CC4)ccc3C2=O)C(=O)N1 [GT-06393, 1-(5-((4,5-dichloro-3',6'-dihydro-[3,4'-bipyridin]-1'(2'H)-yl)methyl)-1-oxoisoindolin-2-yl)dihydropyrimidine-2,4(1H,3H)-dione] | B ("B" is defined as 80%< substrate protein remaining %≤ 100%) | A ("A" is defined as 0% ≤ substrate protein remaining % ≤ 80%) | A ("A" is defined as 0% ≤ substrate protein remaining % ≤ 80%) | 500 to 1000 nM | A ("A" is defined as 0% ≤ substrate protein remaining % ≤ 80%) | A ("A" is defined as 0% ≤ substrate protein remaining % ≤ 80%) | A ("A" is defined as 0% ≤ substrate protein remaining % ≤ 80%) | – | – | – | – | – | – | – | – | – | – | – | –
2 | CC1(C)CCC(CN2CC3CC(C2)N3Cc2ccc3c(c2)CN(N2CCC(=O)NC2=O)C3=O)=C(c2ccc(Cl)cc2)C1 [GT-06456, 1-(5-((3-((4'-chloro-5,5-dimethyl-3,4,5,6-tetrahydro-[1,1'-biphenyl]-2-yl)methyl)-3,6-diazabicyclo[3.1.1]heptan-6-yl)methyl)-1-oxoisoindolin-2-yl)dihydropyrimidine-2,4(1H,3H)-dione] | A ("A" is defined as 0% ≤ substrate protein remaining % ≤ 80%) | A ("A" is defined as 0% ≤ substrate protein remaining % ≤ 80%) | A ("A" is defined as 0% ≤ substrate protein remaining % ≤ 80%) | 100 to 300 nM | A ("A" is defined as 0% ≤ substrate protein remaining % ≤ 80%) | A ("A" is defined as 0% ≤ substrate protein remaining % ≤ 80%) | A ("A" is defined as 0% ≤ substrate protein remaining % ≤ 80%) | – | – | – | – | – | – | – | – | – | – | – | –
3 | O=C1CCN(N2Cc3cc(CN4CCC(c5ccsc5)CC4)ccc3C2=O)C(=O)N1 [GT-07371, 1-(1-oxo-5-((4-(thiophen-3-yl)piperidin-1-yl)methyl)isoindolin-2-yl)dihydropyrimidine-2,4(1H,3H)-dione] | – | – | – | 500 to 1000 nM | – | – | – | B (80%< substrate protein remaining %≤ 100%) | B (80%< substrate protein remaining %≤ 100%) | A (0% ≤ substrate protein remaining % ≤ 80%) | B (80%< substrate protein remaining %≤ 100%) | A (0% ≤ substrate protein remaining % ≤ 80%) | B (80%< substrate protein remaining %≤ 100%) | – | – | – | – | – | –
4 | Cc1ccc(C2CCN(Cc3ccc4c(c3)CN(N3CCC(=O)NC3=O)C4=O)CC2)s1 [GT-07425, 1-(5-((4-(5-methylthiophen-2-yl)piperidin-1-yl)methyl)-1-oxoisoindolin-2-yl)dihydropyrimidine-2,4(1H,3H)-dione] | – | – | – | 500 to 1000 nM | – | – | – | B (80%< substrate protein remaining %≤ 100%) | B (80%< substrate protein remaining %≤ 100%) | A (0% ≤ substrate protein remaining % ≤ 80%) | B (80%< substrate protein remaining %≤ 100%) | B (80%< substrate protein remaining %≤ 100%) | B (80%< substrate protein remaining %≤ 100%) | – | – | – | – | – | –
5 | Cc1nc(C2=CCN(Cc3ccc4c(c3)CN(N3CCC(=O)NC3=O)C4=O)CC2)c2ccsc2n1 [GT-08175, 1-(5-((4-(2-methylthieno[2,3-d]pyrimidin-4-yl)-3,6-dihydropyridin-1(2H)-yl)methyl)-1-oxoisoindolin-2-yl)dihydropyrimidine-2,4(1H,3H)-dione] | – | – | – | – | – | – | – | – | – | – | – | – | – | -10 to -5% | 80 to 100% | 18 to 25% | 80 to 100% | – | –
6 | O=C1CCN(N2C(=O)c3ccc(CN4CC=C(c5ncnc6sc7c(c56)CCCC7)CC4)cc3C2=O)C(=O)N1 [GT-08433, 2-(2,4-dioxotetrahydropyrimidin-1(2H)-yl)-5-((4-(5,6,7,8-tetrahydrobenzo[4,5]thieno[2,3-d]pyrimidin-4-yl)-3,6-dihydropyridin-1(2H)-yl)methyl)isoindoline-1,3-dione] | – | – | – | – | – | – | – | B (80%< substrate protein remaining %≤ 100%) | B (80%< substrate protein remaining %≤ 100%) | A (0% ≤ substrate protein remaining % ≤ 80%) | B (80%< substrate protein remaining %≤ 100%) | A (0% ≤ substrate protein remaining % ≤ 80%) | A (0% ≤ substrate protein remaining % ≤ 80%) | 20 to 30% | 30 to 42% | – | – | 20 to 40% | 15 to 20%
7 | O=C1CCN(N2Cc3cc(CN4CC=C(c5ncc6ccsc6n5)CC4)ccc3C2=O)C(=O)N1 [GT-08438, 1-(1-oxo-5-((4-(thieno[2,3-d]pyrimidin-2-yl)-3,6-dihydropyridin-1(2H)-yl)methyl)isoindolin-2-yl)dihydropyrimidine-2,4(1H,3H)-dione] | – | – | – | – | – | – | – | A (0% ≤ substrate protein remaining % ≤ 80%) | A (0% ≤ substrate protein remaining % ≤ 80%) | A (0% ≤ substrate protein remaining % ≤ 80%) | B (80%< substrate protein remaining %≤ 100%) | A (0% ≤ substrate protein remaining % ≤ 80%) | B (80%< substrate protein remaining %≤ 100%) | 20 to 30% | 80 to 100% | – | – | 20 to 40% | 10 to 15%
8 | O=C1CCN(N2Cc3cc(CN4CCN(c5nc(N6CCOCC6)nc6ccsc56)CC4)ccc3C2=O)C(=O)N1 [GT-08446, 1-(5-((4-(2-morpholinothieno[3,2-d]pyrimidin-4-yl)piperazin-1-yl)methyl)-1-oxoisoindolin-2-yl)dihydropyrimidine-2,4(1H,3H)-dione] | – | – | – | – | – | – | – | B (80%< substrate protein remaining %≤ 100%) | B (80%< substrate protein remaining %≤ 100%) | A (0% ≤ substrate protein remaining % ≤ 80%) | B (80%< substrate protein remaining %≤ 100%) | A (0% ≤ substrate protein remaining % ≤ 80%) | B (80%< substrate protein remaining %≤ 100%) | 42 to 60% | 30 to 42% | – | – | 20 to 40% | 20 to 40%
9 | Cc1nc(C2=CCN(Cc3ccc4c(c3)C(=O)N(N3CCC(=O)NC3=O)C4=O)CC2)c2c(-c3ccccc3)csc2n1 [GT-08484, 2-(2,4-dioxotetrahydropyrimidin-1(2H)-yl)-5-((4-(2-methyl-5-phenylthieno[2,3-d]pyrimidin-4-yl)-3,6-dihydropyridin-1(2H)-yl)methyl)isoindoline-1,3-dione] | – | – | – | – | – | – | – | A (0% ≤ substrate protein remaining % ≤ 80%) | A (0% ≤ substrate protein remaining % ≤ 80%) | A (0% ≤ substrate protein remaining % ≤ 80%) | A (0% ≤ substrate protein remaining % ≤ 80%) | A (0% ≤ substrate protein remaining % ≤ 80%) | A (0% ≤ substrate protein remaining % ≤ 80%) | 42 to 60% | 20 to 30% | – | – | 20 to 40% | 15 to 20%
